Structures are written as SMILES.

The values that follow come from patent US8129137B2, “Two-photon probe for real-time monitoring of intracellular free zinc ions, method for preparing the probe and method for real-time monitoring of intracellular free zinc ions using the probe” (Korea University Industrial & Academic Collaboration …, priority 2008, dated 2012).

The nature of series [1]: Fluorescence quantum yield (Coumarin 307 as reference). It is filed as physicochemical. As to conditions: in methanol in the presence of Zn2+. As to the method: The absorption spectra of the two-photon probes were recorded on a Hewlett-Packard 8453 diode array spectrophotometer, and the fluorescence spectra of the two-photon probes were obtained with an Amico-Bowman series 2 luminescence spectrometer with a 1 cm standard quartz cell. The fluorescence quantum yields of the two-photon probes were determined by using Coumarin 307 as the reference by the literature method (J. N. Demas, G. A. Crosby, J. Phys. Chem. 1971, 75, 991-1024.). FIGS. 2a and 2b are one-photon absorption and emission spectra of the two-photon probe AZn1, respectively, and FIGS. 2c and 2d are one-photon absorption and emission spectra of the two-photon probe AZn2, respectively.

Series [2] is described as follows: Two-photon cross section and action spectra. It is filed as physicochemical. To be noted: in methanol in the presence of Zn2+; 780 nm. As for the experimental part: The two-photon cross section (δ) was determined by using femto second (fs) fluorescence measurement technique.
The intensities of the two-photon induced fluorescence spectra of the reference and the sample probe were measured, and the two-photon cross section of the sample probe was calculated according to Equation 3:
[formula] wherein the subscripts s and r represent sample and reference molecules, respectively, δ represents the two-photon cross section, S represents the strength of signals collected by a CCD detector, φ represents the fluorescence quantum efficiency, φrepresents the total fluorescence collection efficiency of an experimental system, c represents the number density of the molecules within each of the solutions, and δr represents the two-photon cross section of reference molecules.
Referring to FIG. 9, the two-photon action spectra of the Zn^2+ complexes with AZn1 and AZn2 in the buffer solutions indicated a φδ value of ˜90 GM at 780 nm, 4˜24-fold larger than those of TSQ and FluZin-3.

For `COc1cc(NS(=O)(=O)c2ccc(C)cc2)c2ncccc2c1` [TSQ, reference compound], the “fluorescence quantum yield φ” value in series [1] came to 0.43. Also, in series [2], the δ, peak two-photon cross section worked out at 10 GM and the “φδ, two-photon action cross section” value was found to be 4 GM.
